Laboratory results as given in publication PMC10223284, “Category-Based Toxicokinetic Evaluations of Data-Poor Per- and Polyfluoroalkyl Substances (PFAS) using Gas Chromatography Coupled with Mass Spectrometry” (Toxics, 2023).
“And” between values parts separate entries of the source, which are not always exact repeats. Identical values can stand only once. Like-named read-outs stand apart in the source and are kept apart here.

What was measured:
[1] = In vitro-in vivo extrapolation (IVIVE) to Css and administered equivalent dose (AED); design: species or system human; settings: for Clhep: IVIVE, hepatocyte Clint scaled to whole-liver clearance; for AED: administered equivalent dose from LOEC and Css; for Fub: fub=fup/(B:P), Fub set to 1 if needed; for CLint: scaled with HPGL 110 mill cells/g, Vl 1596 g
Summary of the method: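 Administered equivalent doses come from pairing modelled Css with literature in vitro LOECs. Css itself is predicted by IVIVE from experimental hepatic Clint, scaled up to whole-liver clearance in L/h, and experimental fraction unbound in plasma. That fraction was adjusted to unbound-in-blood via blood:plasma partitioning.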

in vitro = settings: both, human, plasma
[2] = Abiotic loss in negative controls of the hepatocyte clearance assay (cell-free media, metabolically inactivated hepatocytes); type: in vitro ADME; settings: for Hep_Stab_Fail: flag for stability failure in hepatocyte clearance assay controls (1 or Fst = fail, 0 = pass)
Summary of the method: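 Abiotic stability was checked with media-only and inactivated-hepatocyte controls, run at T0 and T240 or, on rerun, at more time points. Compound at 1 μM, 37 °C, acetonitrile quench. Loss rates served for background subtraction, and ≥50% loss by T120 meant exclusion.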

human plasma [3] = experiment: Chemical stability in plasma over the UC assay time course (T5hr/T1hr); settings: for Time 1 hr / Time 1 hr, Run-specific Avg: amount measured in plasma sample at 1 hr; for Time 1 hr / Time 5 hr: replicates A, B, C; for Time 1 hr / Time 1 hr, Run-specific Avg / Time 5 hr / Time 5 hr, Run-specific Avg: unit not given; for Time 1 hr, Run-specific Avg / Time 5 hr, Run-specific Avg: run average; for Time 5 hr / Time 5 hr, Run-specific Avg: amount measured in plasma sample at 5 hr; for PPB_Stab_Fail: flag for stability failure in the plasma protein binding assay (1 = fail, 0 = pass); for Fstable.Med: median fraction stable in plasma, UC assay Level4
human plasma [4] = experiment: Ultracentrifugation (UC) plasma protein binding assay, fraction unbound in plasma (fup); settings: for Aqueous Fraction / Aqueous Fraction, Run-specific Avg: amount measured in aqueous fraction after ultracentrifugation, unit not given; for Aqueous Fraction: replicates A, B, C; for Aqueous Fraction, Run-specific Avg: run average; for fup: human plasma, 10 μM, ultracentrifugation, 37 °C; for Fup.Med: median fraction unbound in plasma; for Fup.Med / Fup.point: UC assay Level4; for Fup.point: point estimate of fraction unbound in plasma
human primary cells = settings: cited from earlier work
[5] = Hepatic metabolic stability (hepatocyte clearance) assay, substrate depletion; type: in vitro ADME, human; settings: both sexes, human; for half-life at 1 μM: read-out: Linear Regression Results, Best-Fit Values, Half Life
Summary of the method: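 Substrate depletion of 1 μM compound, 37 °C, with pooled human hepatocytes (50-donor, 50,000 cells/100 μL) in William's E; samples quenched in acetonitrile up to 240 min, triplicate time points. Intrinsic clearance (μL/min/million hepatocytes) and half-life derived from semi-log slope, background-adjusted using media-only and inactivated-cell controls; compounds with ≥50% abiotic loss at T120 excluded.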

[6] = Assuming 1 mg/kg/day dose rate, BW 70 kg
[7] = human steady-state plasma concentration, assuming 1 mg/kg/day dosage
[8] = Fraction Unbound (fu), Run-specific Avg, average of one UC run
[9] = Fraction Unbound (fu), individual replicates A, B, C of the UC run named in c8
[10] = Mean fu, fraction unbound in human plasma, ultracentrifugation, some values based on eLOQ
[11] = buffer, no cells control, 0 vs 240 min, read-out: No Cells BkgdCl, Half Life
[12] = mean T5hr/T1hr ratio in plasma over all replicates/runs
[13] = BioSeek lowest-observed effect concentration used for AED
[14] = minimum lowest-observed effect concentration, BioSeek platform
[15] = hepatocytes, background-subtracted, read-out: Bkgd-Sub Clearance (µL/min/106 hepatocytes)
[16] = hepatocytes, hepatocyte clearance, Conc 1000 nM, not background adjusted, read-out: Unadj Clint
[17] = hepatocytes, pooled human hepatocyte suspensions, 1 μM, read-out: In Vitro Clint
[18] = hepatocytes, unadjusted hepatocyte intrinsic clearance, read-out: Unadj in vitro Clint
[19] = hepatocytes, hepatocyte time course, NS = slope not significant, read-out: Linear Regression Results, Best-Fit Values, Clearance
[20] = hepatocytes, hepatocyte time course, NS = slope not significant
[21] = s9, Bayesian analysis median, 1 μM assay concentration (Table S9), read-out: Clint.1.Med
[22] = Mean Fu, mean fraction unbound in human plasma over all UC replicates/runs
[23] = heat treated hepatocytes, Rep 1-3

SMILES: OCCC(F)(F)C(F)(F)C(F)(F)C(F)(F)F [4:2 Fluorotelomer alcohol]
- Css [1, 6]: 0.0547 mg/L and 0.21 uM
- Clhep [1]: 51.672 L/h
- AED [1]: 9.6507 mg/kg/day
- Fub [1]: 0.3055
- Css [1, 7]: 0.21 µM
- CLint [1]: 6620368 µL/min
- fraction unbound (in vitro; [8]): 0.17
- fraction unbound (in vitro; [9]): 0.206
- fraction unbound (in vitro; [10]): 0.168
- half-life at 1 μM [2, 11]: 2.92 h
- Hep_Stab_Fail [2]: 0
- No Cells BkgdCl, Slope ([2]; no cells control, 0 vs 240 min): -0.003956
- Negative Controls, No cells (NC), concentration at 0 min ([2]; Rep 1-3): 10000 nM
- Negative Controls, No cells (NC), concentration at 240 min ([2]; Rep 1-3): 3870 nM
- Time 1 hr (human plasma [3]): 13164.3 and 12271.8 and 13036
- Time 1 hr, Run-specific Avg (human plasma [3]): 12824.02
- Time 5 hr (human plasma [3]): 8478.66 and 10253.1 and 9709.96
- Time 5 hr, Run-specific Avg (human plasma [3]): 9365.87
- Stability (T5hr/ T1hr), Run-specific Avg (human plasma [3]; average of one UC run): 0.730
- PPB_Stab_Fail (human plasma [3]): 0
- Mean Stability (human plasma [3]; [12]): 0.740
- Fstable.Med (human plasma [3]): 0.21
- Aqueous Fraction (human plasma [4]): 1744.82 and 3486.44 and 1261.67
- Aqueous Fraction, Run-specific Avg (human plasma [4]): 2164.31
- fup (human plasma [4]): 0.1680
- Fup.Med (human plasma [4]): 0.235
- Fup.point (human plasma [4]): 0.231
- LOEC (human primary cells; [13]): 2.00 µM
- LOEC (human primary cells; [14]): 2 µM
- hepatocyte CLint at 1 μM [5, 15]: 37.7 µL/min/1e6 cells
- hepatocyte CLint at 1 μM [5, 16]: 45.6 µL/min/1e6 cells
- hepatocyte CLint at 1 μM [5, 17]: 37.7 µL/min/1e6 cells
- hepatocyte CLint at 1 μM [5, 18]: 45.6 µL/min/1e6 cells
- hepatocyte CLint at 1 μM [5, 19]: 45.6 µL/min/1e6 cells
- half-life at 1 μM [5, 20]: 0.506 h
- hepatocyte CLint at 1 μM [5, 21]: 306 µL/min/1e6 cells

SMILES: OCC(F)(F)C(F)(F)C(F)(F)C(F)(F)C(F)(F)C(F)(F)C(F)(F)C(F)(F)CO [1H,1H,10H,10H-Perfluorodecane-1,10-diol]
- Css [1, 6]: 0.68 mg/L and 1.47 uM
- Clhep [1]: 4.275 L/h
- AED [1]: 1.3619 mg/kg/day
- Fub [1]: 0.008545
- Css [1, 7]: 1.47 µM
- CLint [1]: 8753422 µL/min
- fraction unbound (in vitro; [8]): 0.84
- fraction unbound (in vitro; Fraction Unbound (fu), Run-specific Avg, average of one UC run (run date in line above)): 0.00495
- fraction unbound (in vitro; [9]): 0.83
- fraction unbound (in vitro; Fraction Unbound (fu), replicates A, B, C, single replicate of one UC run (aqueous fraction / Time 5 hr)): 0.00438
- fraction unbound (in vitro; [22]): 0.841
- fraction unbound (in vitro; Mean Fu, mean fraction unbound over all replicates and runs, UC assay, human plasma): 0.00469
- fraction unbound (in vitro; [10]): 0.0047
- half-life at 1 μM ([2]; both sexes, human, heat treated hepatocytes control, 0 vs 240 min, read-out: HT BkgdCl, Half Life): 4.63 h
- half-life at 1 μM [2, 11]: 3.43 h
- Hep_Stab_Fail [2]: 0
- HT BkgdCl, Slope ([2]; heat treated hepatocytes control, 0 vs 240 min): -0.002496
- Negative Controls, Heat Treated (HT), concentration at 0 min [2, 23]: 370.156 nM and 373.519 nM and 421.129 nM
- Negative Controls, Heat Treated (HT), concentration at 240 min [2, 23]: 211.286 nM and 241.673 nM and 189.092 nM
- No Cells BkgdCl, Slope ([2]; no cells control, 0 vs 240 min): -0.003368
- Negative Controls, No cells (NC), concentration at 0 min ([2]; Rep 1-3): 394.883 nM and 393.112 nM and 400.596 nM
- Negative Controls, No cells (NC), concentration at 240 min ([2]; Rep 1-3): 205.477 nM and 157.76 nM and 169.683 nM
- Time 1 hr (human plasma [3]): 7311.43 and 5462.42 and 6036.15
- Time 1 hr, Run-specific Avg (human plasma [3]): 6270.00
- Time 5 hr (human plasma [3]): 3659.49 and 4052.89 and 4429.19
- Time 5 hr, Run-specific Avg (human plasma [3]): 3856.19
- Stability (T5hr/ T1hr), Run-specific Avg (human plasma [3]; average of one UC run): 0.615
- Stability (T5hr/ T1hr), Run-specific Avg (human plasma [3]; average of one UC run (run date in line above)): 0.958
- PPB_Stab_Fail (human plasma [3]): 0
- Mean Stability (human plasma [3]; [12]): 0.657
- Mean Stability (human plasma [3]; mean T5hr/T1hr ratio over all replicates and runs, plasma): 1.003
- Fstable.Med (human plasma [3]): 0.997
- Stability (T5hr/ T1hr), replicates A, B, C (human plasma [3]; single replicate of one UC run): 1.07 and 1.007 and 0.9333 and 0.9811 and 1.003 and 1.254
- Aqueous Fraction (human plasma [4]): 3710.68 and 3362.14 and 3011.07
- Aqueous Fraction, Run-specific Avg (human plasma [4]): 3361.30
- fup (human plasma [4]): 0.0047
- Fup.Med (human plasma [4]): 0.00408
- Fup.point (human plasma [4]): 0.00496
- Fraction Unbound (fu), replicates A, B, C (human plasma [4]; single replicate of one UC run (aqueous fraction / Time 5 hr)): 0.005168 and 0.005301 and 0.003775 and 0.006151 and 0.003351
- LOEC (human primary cells; [13]): 2.00 µM
- LOEC (human primary cells; [14]): 2 µM
- hepatocyte CLint at 1 μM [5, 15]: 56.6 µL/min/1e6 cells
- hepatocyte CLint at 1 μM [5, 16]: 56.6 µL/min/1e6 cells
- hepatocyte CLint at 1 μM [5, 17]: 49.9 µL/min/1e6 cells
- hepatocyte CLint at 1 μM [5, 18]: 56.6 µL/min/1e6 cells
- hepatocyte CLint at 1 μM [5, 19]: 56.6 µL/min/1e6 cells
- half-life at 1 μM [5, 20]: 0.408 h
- hepatocyte CLint at 1 μM [5, 21]: 115 µL/min/1e6 cells

SMILES: NC(=O)C(F)(F)C(F)(F)C(F)(F)F [Heptafluorobutyramide]
- Css [1, 6]: 0.0422 mg/L and 0.20 uM
- Clhep [1]: 63.013 L/h
- AED [1]: 101.0389 mg/kg/day
- Fub [1]: 1
- Css [1, 7]: 0.20 µM
- CLint [1]: 3502422 µL/min
- fraction unbound (in vitro; [8]): 0.6
- fraction unbound (in vitro; Fraction Unbound (fu), replicate A, individual replicate A of the UC run dated in c8): 0.667
- fraction unbound (in vitro; Fraction Unbound (fu), replicate B, individual replicate B of the UC run dated in c8): 0.57
- fraction unbound (in vitro; Fraction Unbound (fu), replicate C, individual replicate C of the UC run dated in c8): 0.565
- fraction unbound (in vitro; Mean Fu (fraction unbound), mean over all UC runs and replicates, human plasma): 0.603
- fraction unbound (in vitro; [22]): 0.603
- fraction unbound (in vitro; [10]): 0.603
- fraction unbound (in vitro; Mean fu, fraction unbound in human plasma, used for IVIVE): 0.603
- Hep_Stab_Fail [2]: 0
- Negative Controls, No cells (NC), concentration at 240 min ([2]; Rep 1-3): 409.23 nM and 475.181 nM and 464.709 nM
- Time 1 hr, Run-specific Avg (human plasma [3]): 9336.10
- Time 5 hr, Run-specific Avg (human plasma [3]): 8817.96
- Stability (T5hr/ T1hr), Run-specific Avg (human plasma [3]; average of one UC run): 0.945
- PPB_Stab_Fail (human plasma [3]): 0
- Mean Stability (human plasma [3]; [12]): 0.963
- Mean Stability (T5hr/T1hr) (human plasma [3]; mean over all UC runs and replicates, human plasma): 0.963
- Fstable.Med (human plasma [3]): 0.999
- Aqueous Fraction, Run-specific Avg (human plasma [4]): 5392.01
- fup (human plasma [4]): 0.6030
- Fup.Med (human plasma [4]): 0.566
- Fup.point (human plasma [4]): 0.601
- LOEC (human primary cells; [13]): 20.00 µM
- LOEC (human primary cells; [14]): 20 µM
- hepatocyte CLint at 1 μM [5, 15]: 19.9 µL/min/1e6 cells
- hepatocyte CLint at 1 μM ([5]; hepatocytes, hepatocyte clearance, Conc 1000 nM, background adjusted, read-out: Bkgd Adj Clint): 19.9 µL/min/1e6 cells
- hepatocyte CLint at 1 μM [5, 16]: 19.9 µL/min/1e6 cells
- hepatocyte CLint at 1 μM ([5]; hepatocytes, hepatocyte intrinsic clearance adjusted for background (abiotic) loss, read-out: Bkgd_adj_Clint): 19.9 µL/min/1e6 cells
- hepatocyte CLint at 1 μM [5, 17]: 19.9 µL/min/1e6 cells
- hepatocyte CLint at 1 μM [5, 18]: 19.9 µL/min/1e6 cells
- hepatocyte CLint at 1 μM [5, 19]: 19.9 µL/min/1e6 cells
- half-life at 1 μM [5, 20]: 1.16 h
